The target in assay [1] is T1, recombinant human Estrogen Receptor alpha ligand binding domain, residues 307-554 (ER alpha-LBD (GST)) (Homo sapiens, UniProt P03372).
T1 construct: made in house
T1 sequence (P03372 307-554): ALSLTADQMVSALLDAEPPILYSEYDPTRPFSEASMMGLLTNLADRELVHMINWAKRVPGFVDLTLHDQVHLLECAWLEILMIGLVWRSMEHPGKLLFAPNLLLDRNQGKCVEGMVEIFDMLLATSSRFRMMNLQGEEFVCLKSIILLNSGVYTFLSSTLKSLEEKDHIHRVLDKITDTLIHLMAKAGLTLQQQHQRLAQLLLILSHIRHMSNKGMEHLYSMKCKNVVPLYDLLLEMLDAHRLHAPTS
Put plainly: ERα binding assay (LanthaScreen TR-FRET competition). Particulars: TR-FRET competition with Fluormone ES2 tracer, 4 hours at room temperature; single experiment or average of two or more. How it is done: The ability of compounds to bind to isolated Estrogen Receptor Alpha Ligand binding domain (ER alpha-LBD (GST)) was assessed in competition assays using a LanthaScreen™ Time-Resolved Fluorescence Resonance Energy Transfer (TR-FRET) detection end-point. For the LanthaScreen TR-FRET endpoint, a suitable fluorophore (Fluormone ES2, ThermoFisher, Product code P2645) and recombinant human Estrogen Receptor alpha ligand binding domain, residues 307-554 (expressed and purified in-house) were used to measure compound binding. The assay principle is that ER alpha-LBD (GST) is added to a fluorescent ligand to form a receptor/fluorophore complex. A terbium-labelled anti-GST antibody (Product code PV3551) is used to indirectly label the receptor by binding to its GST tag, and competitive binding is detected by a test compound's ability to displace the fluorescent ligand, resulting in a loss of TR-FRET signal between the Tb-anti-GST antibody and the tracer. The assay was performed as follows with all reagent additions carried out using the Beckman Coulter BioRAPTR FRD microfluidic workstation: • 1. Acoustic dispense 120 nL of the test compound into a black low volume 384 well assay plates. • 2. Prepare 1×ER alpha-LBD/Tb-antiGST Ab in ES2 screening buffer and incubate for 15 minutes. • 3. Dispense 6 μL of the […] reagent into each well of the assay plate followed by 6 μL of Fluorophore reagent into each well of the assay plate • 4. Cover the assay plate to protect the reagents from light and evaporation, and incubate at room temperature for 4 hours. • 5. Excite at 337 nm and measure the fluorescent emission signal of each well at 490 nm and 520 nm using the BMG PheraSTAR.
Compounds were dosed directly from a compound source microplate containing serially diluted compound (4 wells containing 10 mM, […] and 10 nM final compound respectively) to an assay microplate using the Labcyte Echo 550. The Echo 550 is a liquid handler that uses acoustic technology to perform direct microplate-to-microplate transfers of DMSO compound solutions and the system can be programmed to transfer multiple small nL volumes of compound from the different source plate wells to give the desired serial dilution of compound in the assay which is then back-filled to normalise the DMSO concentration across the dilution range.
In total 120 nL of compound plus DMSO were added to each well and compounds were tested in a 12-point concentration response format over a final compound concentration range of 10, 2.917, 1.042, 0.2083, 0.1, 0.0292, 0.0104, 0.002083, 0.001, 0.0002917, 0.0001042, and 0.00001 μM respectively. TR-FRET dose response data obtained with each compound was exported into a suitable software package (such as Origin or Genedata) to perform curve fitting analysis. Competitive ER alpha binding was expressed as an IC50 value. This was determined by calculation of the concentration of compound that was required to give a 50% reduction in tracer compound binding to ER alpha-LBD.

Assay [2] deals with T2, Estrogen Receptor (ERα) in MCF-7 human ductal carcinoma breast cell line (Homo sapiens, UniProt P03372).
T2 construct: endogenous in cells; host or cells: MCF-7
T2 sequence (P03372 1-595): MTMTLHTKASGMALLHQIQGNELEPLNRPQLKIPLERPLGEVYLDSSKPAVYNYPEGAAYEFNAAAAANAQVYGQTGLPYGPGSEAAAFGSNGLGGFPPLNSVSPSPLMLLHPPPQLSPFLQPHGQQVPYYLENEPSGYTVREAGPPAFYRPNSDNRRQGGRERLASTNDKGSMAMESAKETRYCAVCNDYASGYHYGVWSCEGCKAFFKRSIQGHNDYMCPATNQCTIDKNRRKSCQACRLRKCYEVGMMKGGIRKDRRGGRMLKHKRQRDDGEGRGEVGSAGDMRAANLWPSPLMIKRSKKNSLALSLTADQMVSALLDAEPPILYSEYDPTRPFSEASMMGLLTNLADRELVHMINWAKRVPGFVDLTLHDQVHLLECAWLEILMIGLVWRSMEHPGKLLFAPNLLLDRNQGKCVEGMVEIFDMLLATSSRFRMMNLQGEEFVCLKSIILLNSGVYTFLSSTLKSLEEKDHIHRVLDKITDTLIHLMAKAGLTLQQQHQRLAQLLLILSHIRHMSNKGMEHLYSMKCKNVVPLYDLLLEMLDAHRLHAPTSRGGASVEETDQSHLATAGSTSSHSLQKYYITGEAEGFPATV
Nature of the assay: MCF-7 ER degradation assay (cell based immuno-fluorescence). Conditions: MCF-7 cells, 18-22 hours incubation, 50% reduction of ERα expression; single experiment or average of two or more; read-out: MCF-7 ER degradation IC50. In short, it runs like this:
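MCF-7 human ductal carcinoma breast cells were seeded at 3.75×10^4 cells per mL (40 μL per well) in 384 well plates with phenol red free DMEM containing 2 mM L-Glutamine and 5% (v/v) Charcoal/Dextran treated foetal calf serum. After overnight culture, compounds were acoustically dispensed, incubated 18-22 hours, then cells were formaldehyde-fixed and immunostained for ERα.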

On to `Cc1ncsc1-c1ccc(CNC(=O)[C@@H]2C[C@@H](O)CN2C(=O)[C@@H](N(C)C(=O)COCCOCCOCCOc2cc(F)c([C@@H]3c4[nH]c5ccccc5c4C[C@@H](C)N3CC(C)(C)F)c(F)c2)C(C)(C)C)cc1` [Example 31, (2S,4R)-1-((S)-2-(tert-Butyl)-14-(3,5-difluoro-4-((1R,3R)-2-(2-fluoro-2-methylpropyl)-3-methyl-2,3,4,9-tetrahydro-1H-pyrido[3,4-b]indol-1-yl)phenoxy)-3-methyl-4-oxo-6,9,12-trioxa-3-azatetradecanoyl)-4-hydroxy-N-(4-(4-methylthiazol-5-yl)benzyl)pyrrolidine-2-carboxamide], for which the IC50 in assay [1] was 0.6 nM. For the same molecule, in assay [2], the DC50 was determined as 0.3 nM.
Regarding `Cc1ncsc1-c1ccc(CNC(=O)[C@@H]2C[C@@H](O)CN2C(=O)[C@@H](NC(=O)CCCCN(C)CCN(C)CCOc2cc(F)c([C@@H]3c4[nH]c5ccccc5c4C[C@@H](C)N3CC(C)(C)F)c(F)c2)C(C)(C)C)cc1` [Example 108, (2S,4R)-1-((S)-2-(5-((2-((2-(3,5-difluoro-4-((1R,3R)-2-(2-fluoro-2-methylpropyl)-3-methyl-2,3,4,9-tetrahydro-1H-pyrido[3,4-b]indol-1-yl)phenoxy)ethyl)(methyl)amino)ethyl)(methyl)amino)pentanamido)-3,3-dimethylbutanoyl)-4-hydroxy-N-(4-(4-methylthiazol-5-yl)benzyl)pyrrolidine-2-carboxamide], the half-inhibitory concentration (IC50) in assay [1] came to 0.6 nM. Moreover, the DC50 in assay [2] came out at 1.1 nM.
`Cc1ncsc1-c1ccc(CNC(=O)[C@@H]2C[C@@H](O)CN2C(=O)[C@@H](NC(=O)COCCCCCOc2cc(F)c([C@@H]3c4[nH]c5ccccc5c4C[C@@H](C)N3CC(F)(F)CO)c(F)c2)C(C)(C)C)cc1` [Example 70, (2S,4R)-1-((S)-2-(2-((5-(4-((1R,3R)-2-(2,2-Difluoro-3-hydroxypropyl)-3-methyl-2,3,4,9-tetrahydro-1H-pyrido[3,4-b]indol-1-yl)-3,5-difluorophenoxy)pentyl)oxy)acetamido)-3,3-dimethylbutanoyl)-4-hydroxy-N-(4-(4-methylthiazol-5-yl)benzyl)pyrrolidine-2-carboxamide]: in assay [1], the half-maximal inhibitory concentration (IC50) was determined as 0.8 nM. Besides, the DC50 in assay [2] worked out at 0.9 nM.
For `Cc1ncsc1-c1ccc(CNC(=O)[C@@H]2C[C@@H](O)CN2C(=O)[C@@H](NC(=O)COCC#CC#CCOc2cc(F)c([C@@H]3c4[nH]c5ccccc5c4C[C@@H](C)N3CC(C)(C)F)c(F)c2)C(C)(C)C)cc1` [Example 50, (2S,4R)-1-((S)-2-(2-((6-(3,5-difluoro-4-((1R,3R)-2-(2-fluoro-2-methylpropyl)-3-methyl-2,3,4,9-tetrahydro-1H-pyrido[3,4-b]indol-1-yl)phenoxy)hexa-2,4-diyn-1-yl)oxy)acetamido)-3,3-dimethylbutanoyl)-4-hydroxy-N-(4-(4-methylthiazol-5-yl)benzyl)pyrrolidine-2-carboxamide], the IC50 in assay [1] was determined as 1.2 nM. For the same molecule, in assay [2], the DC50 stood at 6.6 nM.
Taken in the same sequence, the figures for `Cc1ncsc1-c1ccc(CNC(=O)[C@@H]2C[C@@H](O)CN2C(=O)[C@@H](NC(=O)CNCCCCCOc2cc(F)c([C@@H]3c4[nH]c5ccccc5c4C[C@@H](C)N3CC(C)(C)F)c(F)c2)C(C)(C)C)cc1` [Example 89, (2S,4R)-1-((S)-2-(2-((5-(3,5-Difluoro-4-((1R,3R)-2-(2-fluoro-2-methylpropyl)-3-methyl-2,3,4,9-tetrahydro-1H-pyrido[3,4-b]indol-1-yl)phenoxy)pentyl)amino)acetamido)-3,3-dimethylbutanoyl)-4-hydroxy-N-(4-(4-methylthiazol-5-yl)benzyl)pyrrolidine-2-carboxamide] were 0.7 nM and 0.7 nM.
Turning to `Cc1ncsc1-c1ccc(CNC(=O)[C@@H]2C[C@@H](O)CN2C(=O)[C@@H](NC(=O)CN(C)CCCCCOc2cc(F)c(C3c4[nH]c5ccccc5c4C[C@@H](C)N3CC(C)(C)F)c(F)c2)C(C)(C)C)cc1` (stereo partly drawn) [Example 90, (2S,4R)-1-((S)-2-(2-((5-(3,5-Difluoro-4-((1R,3R)-2-(2-fluoro-2-methylpropyl)-3-methyl-2,3,4,9-tetrahydro-1H-pyrido-[3,4-b]indol-1-yl)phenoxy)pentyl)(methyl)amino)acetamido)-3,3-dimethylbutanol)-4-hydroxy-N-(4-(4-methylthiazol-5-yl)benzyl)pyrrolidine-2-carboxamide], the half-maximal inhibitory concentration (IC50) in assay [1] was 1.2 nM. For the same molecule, the DC50 in assay [2] is 102 nM.
As for `Cc1ncsc1-c1ccc(CNC(=O)[C@@H]2C[C@@H](O)CN2C(=O)[C@@H](NC(=O)CCN2CCN(CCCCOc3cc(F)c([C@@H]4c5[nH]c6ccccc6c5C[C@@H](C)N4CC(C)(C)F)c(F)c3)CC2)C(C)(C)C)cc1` [Example 98, (2S,4R)-1-((S)-2-(3-(4-(4-(3,5-Difluoro-4-((1R,3R)-2-(2-fluoro-2-methylpropyl)-3-methyl-2,3,4,9-tetrahydro-1H-pyrido[3,4-b]indol-1-yl)phenoxy)butyl)piperazin-1-yl)propanamido)-3,3-dimethylbutanoyl)-4-hydroxy-N-(4-(4-methylthiazol-5-yl)benzyl)pyrrolidine-2-carboxamide], the 50% inhibitory concentration (IC50) in assay [1] was determined as 0.6 nM. The DC50 in assay [2] is 0.4 nM.
The like results for `Cc1ncsc1-c1ccc([C@H](C)NC(=O)[C@@H]2C[C@@H](O)CN2C(=O)[C@@H](NC(=O)COCCCOCCCCOc2cc(F)c([C@@H]3c4[nH]c5ccccc5c4C[C@@H](C)N3CC(C)(C)F)c(F)c2)C(C)(C)C)cc1` [Example 155, (2S,4R)-1-((S)-2-(2-(3-(4-(3,5-Difluoro-4-((1R,3R)-2-(2-fluoro-2-methylpropyl)-3-methyl-2,3,4,9-tetrahydro-1H-pyrido[3,4-b]indol-1-yl)phenoxy)butoxy)propoxy)acetamido)-3,3-dimethylbutanoyl)-4-hydroxy-N—((S)-1-(4-(4-methylthiazol-5-yl)phenyl)ethyl)pyrrolidine-2-carboxamide] were, in that order, 0.3 nM and 0.7 nM.

What is called IC50 is the concentration at which inhibition is half-maximal.

The values are drawn from patent US10519152B2, “Compounds and their use in treating cancer” (AstraZeneca AB, priority 2017, dated 2019).
